Laboratory results as given in patent US20100093767A1, “Mitotic Kinase Inhibitors” (TAKEDA SAN DIEGO, INC., priority 2004, published 2010).
pIC50: −log10 of the molar value.

Target: T1, KSP (HuEg5) (Homo sapiens, UniProt P52732)
T1 construct: I.D. No. 1 corresponds to residues 1-359 with the C-terminal 6-histidine tag; 6-histidine tag (C); made in house; host or cells: E. coli Tuner (DE3)
T1 sequence (P52732 with tags, fused parts or gaps): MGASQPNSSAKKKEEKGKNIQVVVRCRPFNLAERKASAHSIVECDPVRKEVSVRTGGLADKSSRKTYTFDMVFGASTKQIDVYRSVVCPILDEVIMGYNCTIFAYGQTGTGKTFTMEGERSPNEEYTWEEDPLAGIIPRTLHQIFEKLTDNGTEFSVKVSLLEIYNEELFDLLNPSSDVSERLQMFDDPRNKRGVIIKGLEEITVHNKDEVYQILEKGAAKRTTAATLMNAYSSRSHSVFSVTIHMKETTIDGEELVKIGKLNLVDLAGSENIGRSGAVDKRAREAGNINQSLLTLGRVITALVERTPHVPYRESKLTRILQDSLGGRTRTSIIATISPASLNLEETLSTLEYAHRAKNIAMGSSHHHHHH
Assay: in vitro enzymatic KSP (HuEg5) ATPase activity assay
Type: biochemical
Conditions: reference compounds; coupled PK/LDH ATPase assay, 25 μM ATP, 12 nM enzyme, 60 minutes at room temperature
Excerpt: The activity of compounds as KSP (HuEg5) inhibitors may be assayed in vitro, in vivo, or in a cell line. Further, compounds according to the present invention may be screened for activity against one or more kinesins. Provided below is the in vitro enzymatic KSP (HuEg5) ATPase activity assay for activity against KSP (HuEg5).
KSP (Eg5) DNA encoding residues 1-359 of the Kinesin motor domain sequence of the human enzyme may be amplified by PCR and cloned into the NcoI site of pET15b (Novagen), which incorporates a 6-histidine tag at the C-terminus. SEQ. I.D. No. 1 corresponds to residues 1-359 with the C-terminal 6-histidine tag and SEQ. I.D. No. 2 is the DNA sequence that was used to encode SEQ. […]
Recombinant protein may be isolated from cellular extracts by passage over ProBond resin (Invitrogen), and dialysis against buffer containing 25 mM Tris pH 7.6, 50 mM NaCl, 0.25 mM TCEP. The purity of KSP (Eg5) proteins may be determined on denaturing SDS-PAGE gel. […]
The inhibitory properties of compounds relative to KSP may be determined using a clear 384-well plate format under the following reaction conditions: 20 mM K-PIPES pH 6.8, 2 mM MgCl2, 1 mM EGTA, 1.5 mM KCl, 1 mM DTT, 0.01% Brij35, 25 μM ATP, 1 mM phosphoenolpyruvate (PEP), 0.4 mM NADH, 25 nM microtubules (MT), 1 μM Taxol, 30 units/ml rabbit muscle pyruvate kinase (PK), 30 units/ml rabbit muscle lactic dehydrogenase (LDH), and 2% DMSO. […]

pIC50 | SMILES
4.35 | CCOC(=O)C1=C(C)NC(=S)NC1c1cccc(O)c1 (centres unmarked) [Monastrol]
5.82 | CCCCN1C(=O)C2Cc3c([nH]c4ccccc34)C(c3cccc(O)c3)N2C1=O (centres unmarked) [HR22C16]
